# Measurements published in US20190282541A1, “USE OF ERIBULIN AND HISTONE DEACETYLASE INHIBITORS IN THE TREATMENT OF CANCER” (EISAI R&D MANAGEMENT CO., LTD., priority 2016, published 2019).
# Like-named read-outs stand apart in the source and are kept apart here.
# Columns and labels:
# Format in all cases: cell-based
# [1] = system: T-47D human breast cancer cells; experiment: Single agent growth inhibition (Cell Titer-Glo proliferation); conditions: T47D, 72 hours
# Method: (§1) The growth inhibitory activities of two test agents, eribulin and entinostat, were determined alone and in combination against 12 human breast cancer cell lines (Table 1). The human breast tumor cell lines were selected based on their profile characteristics of being either human epidermal growth factor receptor 2 negative (Her2') and estrogen receptor positive (ER^+) or Triple Negative (Her2^-, ER^-, and progesterone receptor negative [PR^-]). Activities of individual agents were determined by curve-fitting the concentration of agent that inhibits cell growth by 50% compared to the control cells in a four parameter-logistic equation, whereas agent combinations were determined by the method of (Chou and […] Advances in Enzyme Regulation 22:27-55, 1984), and analyzed with CalcuSyn software. Fa, the fraction of affected drug targets at a given drug concentration, was calculated from the fractional decrease. Each agent was tested individually to determine the median-effect dose, Dm, (or EC50, the 50% effect concentration). For combination treatments, drug solutions were mixed at ratios providing approximately equipotent concentrations based upon relative Dm, and this mixture was serially diluted to yield test concentrations. The Combination Index (CI), computed from ratios of the concentrations of mixed and unmixed drugs that produce the same Fa, indicates whether inhibition is additive, synergistic, or antagonistic. In whole-cell assays, inhibitor interactions are complex (mixed), rather than mutually exclusive (purely competitive) or nonexclusive (purely non-competitive), CI values for both types of inhibition are reported to define the range of possible values. […] Finally, in Experiment 3, we determined the antiproliferative activity of the study agents in combination against the panel of human tumor cell lines. […] We further analyzed quadruplicate samples over a seven point dose response range. MCF-7 human breast cancer cells were cultured in RPMI 1640 medium supplemented with 10% fetal bovine serum (FBS), 2 mM glutamine, 10 mM 4-(2-hydroxyethyl)-1-piperazineethanesulfonic acid (HEPES), 0.075% sodium bicarbonate, 100 units/mL sodium penicillin G, 100 μg/mL streptomycin sulfate and 25 μg/mL gentamicin. T-47D human breast cancer cells were cultured in RPMI 1640 medium supplemented with 10% FES. 4.5 g/L glucose. 2 mM glutamine. 10 mM HEPES, 0.2 units/mL Insulin, 1 mM sodium pyruvate, 100 units/mL sodium penicillin G, 100 streptomycin sulfate and 25 μg/mL gentamicin, ZR-75-1 human breast cancer cells were cultured in RPMI 1640 medium supplemented with 10% FBS, 4.5 g/L. glucose, 2 mM glutamine, 10 […] HEPES, 1 mM sodium pyruvate, 100 units/mL sodium penicillin G, 100 μg/mL streptomycin sulfate and 25 μg/mL gentamicin. […] HCC70 human breast cancer cells were cultured in RPMI1640 medium supplemented with 10% FBS, 2 mM glutamine, 4.5 g/L glucose, 10 mM HEPES, 0.075% sodium bicarbonate, 1 mM sodium pyruvate, 100 units/mL sodium penicillin 0, 100 μg/mL streptomycin sulfate and 25 μg/mL gentamicin. […] The tumor cells were cultured in tissue culture flasks in a humidified incubator at 37° C., in an atmosphere of 5% CO2 and 95% air; except for the MDA-MB-134-VI, MDA-MB-175-VII, MDA-MB-415, and MDA-MB-436, these cells were cultured at 37° C. in 100% air and no additional CO2. The selected human tumor cells were seeded at 2,000-5,000 cells/well in a clear polystyrene 96-well microculture plate (Corning® Costar® 96-well flat bottom plate, Cat. No. 3997) in a total volume of 90 μL per well. After 24 hours of incubation in a humidified incubator at 37° C. with 5% CO2 and 95% air (except for the MDA-MB-134-VI, MDA-MB-175-VII, MDA-MB-415, and MDA-MB-436, these cells were cultured at 37° C. in 100% air, no additional CO2), 10 μL of the 10× drug prep was added. […]
# [2] = system: Hs578t human breast cancer cells; experiment: as above; conditions: Hs-578T, 72 hours
# Method: as §1
# [3] = system: BT-549 human breast cancer cells; experiment: as above; conditions: 72 hours
# Method: as §1
# [4] = system: MDA-MB-175VII human breast cancer cells; experiment: as above; conditions: 144 hours
# Method: as §1
# [5] = system: MCF-7 human breast cancer cells; experiment: as above; conditions: 72 hours
# Method: as §1
# [6] = system: MDA-MB-231 human breast cancer cells; experiment: as above; conditions: 72 hours
# Method: as §1
# [7] = system: MDA-MB-436 human adenocarcinoma derived cancer cells; experiment: as above; conditions: 144 hours
# Method: as §1
# [8] = system: MDA-MB-415 human breast cancer cells; experiment: as above; conditions: 144 hours
# Method: as §1
# [9] = system: ZR-75-1 human breast cancer cells; experiment: as above; conditions: Experiment 2, narrow concentration range, 72 hours
# Method: as §1
# [10] = system: MDA-MB-134VI human breast cancer cells; experiment: as above; conditions: 144 hours
# Method: as §1
# [11] = system: HCC1806 human breast cancer cells; experiment: as above; conditions: 72 hours
# Method: as §1
# [12] = system: HCC70 human breast cancer cells; experiment: as above; conditions: 72 hours
# Method: as §1
# [13] = system: panel of 12 human breast cancer cell lines; experiment: Single agent inhibitory activity across the cell line panel; conditions: all 12 cell lines, Experiments 1 and 2
# Method: The growth inhibitory activities of two test agents, eribulin and entinostat, were determined alone and in combination against 12 human breast cancer cell lines (Table 1). The human breast tumor cell lines were selected based on their profile characteristics of being either human epidermal growth factor receptor 2 negative (Her2') and estrogen receptor positive (ER^+) or Triple Negative (Her2^-, ER^-, and progesterone receptor negative [PR^-]). Activities of individual agents were determined by curve-fitting the concentration of agent that inhibits cell growth by 50% compared to the control cells in a four parameter-logistic equation, whereas agent combinations were determined by the method of (Chou and […] Advances in Enzyme Regulation 22:27-55, 1984), and analyzed with CalcuSyn software. Fa, the fraction of affected drug targets at a given drug concentration, was calculated from the fractional decrease. […] Finally, in Experiment 3, we determined the antiproliferative activity of the study agents in combination against the panel of human tumor cell lines. […] We further analyzed quadruplicate samples over a seven point dose response range. […] The medium/Cell Titer-Glo® reagent was transferred to a white polystyrene 96-well microculture plate (Corning® Costar® 96-well flat bottom plate, Cat. No. 3917) before determining luminescence on the Tecan GENios microplate. […]
# [14] = Experiment 1, wide concentration range, read-out: Wide range IC50
# [15] = Experiment 2, narrow concentration range, read-out: Narrow range IC50
# [16] = MCF7, Experiment 1, wide concentration range, read-out: Wide range IC50
# [17] = MCF7, Experiment 2, narrow concentration range, read-out: Narrow range IC50
Structure (SMILES),"IC50 [1, 15]","IC50 [2, 14]","IC50 [2, 15]","IC50 [3, 14]","IC50 [3, 15]","IC50 [4, 14]","IC50 [4, 15]","IC50 [5, 16]","IC50 [5, 17]","IC50 [6, 14]","IC50 [6, 15]","IC50 [7, 14]","IC50 [7, 15]","IC50 [8, 14]","IC50 [8, 15]","IC50 [10, 14]","IC50 [10, 15]","IC50 [11, 14]","IC50 [11, 15]","IC50 [12, 14]",also measured
"Nc1ccccc1NC(=O)c1ccc(CNC(=O)OCc2cccnc2)cc1 [entinostat, pyridin-3-yl methyl N-[[4-[(2-aminophenyl)carbarnoyl]phenyl]methyl carbamate]",1780 nM,1100 nM,1400 nM,1250 nM,1500 nM,210 nM,1170 nM,540 nM,570 nM,610 nM,940 nM,810 nM,1370 nM,92.1 nM,140 nM,390 nM,800 nM,550 nM,1220 nM,1450 nM,"IC50 [1, 14]: 1600 nM; IC50 [9]: 4950 nM; IC50 [12, 15]: 1110 nM"
C=C1C[C@@H]2CC[C@@]34C[C@H]5O[C@H]6[C@@H](O3)[C@H]3O[C@H](CC[C@@H]3O[C@H]6[C@H]5O4)CC(=O)C[C@@H]3[C@@H](OC)[C@@H](C[C@H](O)CN)O[C@H]3C[C@H]3O[C@@H](CC[C@@H]1O2)C[C@@H](C)C3=C [eribulin],1.15 nM,0.39 nM,0.67 nM,0.23 nM,0.39 nM,0.55 nM,1.09 nM,0.22 nM,0.37 nM,0.26 nM,0.52 nM,2.82 nM,3.2 nM,0.64 nM,0.57 nM,0.62 nM,0.88 nM,0.25 nM,0.3 nM,0.35 nM,Relative potency of single agents [13]: more potent than entinostat in all cell lines
